Measurements as given in ChEMBL document CHEMBL1154232, “Cerebrosides of the halotolerant fungus Alternaria raphani isolated from a sea salt field” (J Nat Prod, 2009).
Values after ≈ are worked out from the molar mass of the structure shown.

Assays:
Bacillus subtilis = assay: Antibacterial activity against Bacillus subtilis after 24 hrs by agar dilution method; type: functional
Candida albicans = assay: Antifungal activity against Candida albicans after 24 hrs by agar dilution method; type: functional
A549 = assay: Cytotoxicity against human A549 cells after 72 hrs by MTT assay; type: functional, cell-based; conditions: A549, 72 h
[1] = tested on: Radical scavenging activity; assay: Antioxidant activity assessed as DPPH free radical scavenging activity after 30 mins; type: functional
Bel-7402 = assay: Cytotoxicity against human Bel7402 cells after 72 hrs by MTT assay; type: functional, cell-based; conditions: Bel-7402, 72 h
HL-60 = assay: Cytotoxicity against human HL60 cells after 24 hrs by SRB assay; type: functional, cell-based; conditions: HL-60, 24 h
P388 = assay: Cytotoxicity against mouse P388 cells after 24 hrs by SRB assay; type: functional, cell-based; conditions: P388, 24 h
Escherichia coli = assay: Antibacterial activity against Escherichia coli after 24 hrs by agar dilution method; type: functional

C=C(CCCCCCCCC)C(=O)CC/C=C/[C@@H](O)[C@H](CO[C@@H]1O[C@H](CO)[C@@H](O)[C@H](O)[C@H]1O)NC(=O)[C@H](O)/C=C/CCCCCCCCCCCCCC [ALTERNAROSIDE A]
MIC (Bacillus subtilis): 130 µM (≈ 99.9 µg/mL) | MIC (Candida albicans): 260 µM (≈ 200 µg/mL) | IC50 (A549): > 100 µM | IC50 [1]: > 500 µM | IC50 (Bel-7402): > 100 µM | IC50 (HL-60): > 100 µM | IC50 (P388): > 100 µM | MIC (Escherichia coli): 130 µM (≈ 99.9 µg/mL)

CCCCCCCCCCCCCC/C=C/[C@@H](O)C(=O)N[C@@H](CO[C@@H]1O[C@H](CO)[C@@H](O)[C@H](O)[C@H]1O)[C@H](O)/C=C/CC/C=C(\C)CCCCCCCC [ALTERNAROSIDE B]
MIC (Bacillus subtilis): 68 µM (≈ 50.3 µg/mL) | MIC (Candida albicans): 270 µM (≈ 200 µg/mL) | IC50 (A549): > 100 µM | IC50 [1]: > 500 µM | IC50 (Bel-7402): > 100 µM | IC50 (HL-60): > 100 µM | IC50 (P388): > 100 µM | MIC (Escherichia coli): 135 µM (≈ 99.9 µg/mL)

CCCCCCCCC/C=C\CC/C=C/[C@@H](O)[C@H](CO[C@@H]1O[C@H](CO)[C@@H](O)[C@H](O)[C@H]1O)NC(=O)[C@H](O)/C=C/CCCCCCCCCCCCCC [ALTERNAROSIDE C]
MIC (Bacillus subtilis): 135 µM (≈ 99.9 µg/mL) | MIC (Candida albicans): 270 µM (≈ 200 µg/mL) | IC50 (A549): > 100 µM | IC50 [1]: > 500 µM | IC50 (Bel-7402): > 100 µM | IC50 (HL-60): > 100 µM | IC50 (P388): > 100 µM | MIC (Escherichia coli): 135 µM (≈ 99.9 µg/mL)

O=C1O[C@H]([C@@H](O)CO)C(O)=C1O [ASCORBIC ACID]
IC50 [1]: 22 µM

O=C(O)c1cn(C2CC2)c2cc(N3CCNCC3)c(F)cc2c1=O [CIPROFLOXACIN LACTATE]
MIC (Bacillus subtilis): 7.42 µM

COc1cc([C@@H]2c3cc4c(cc3[C@@H](O[C@@H]3O[C@@H]5CO[C@@H](C)O[C@H]5[C@H](O)[C@H]3O)[C@H]3COC(=O)[C@H]23)OCO4)cc(OC)c1O [ETOPOSIDE]
IC50 (A549): 0.63 µM | IC50 (Bel-7402): 1.03 µM | IC50 (HL-60): 0.042 µM | IC50 (P388): 0.05 µM

OC(Cn1cncn1)(Cn1cncn1)c1ccc(F)cc1F [FLUCONAZOLE]
MIC (Candida albicans): 5.1 µM (≈ 1.56 µg/mL)
